Data: patent publication US6352982B1, “4,1-benzoxazepines, their analogues, and their use as somatostatin agonists” (Takeda Chemical Industries, Ltd., priority 1997, dated 2002)
Structures can show the parent of a compound that is named as a salt.

Tests used:
Sprague-Dawley (SD) rats = assay: Inhibition of GH secretion using Sprague-Dawley rats; assay type: in vivo, rat; settings: male SD rats, 3 mg/kg intraperitoneally
Description: Male rats of SD strain were divided into the compound treatment group (n=5) and the control group (n=4). The rats in the compound treatment group were administered intraperitoneally with 0.5% methylcellulose saline solution containing the compound of Example 5 in the concentration of 3 mg/kg/5 ml, and the animals of the control group were administered intraperitoneally with 5 ml/kg of 0.5% methylcellulose saline solution. Four hours after administration, the rats were decapitated without anesthesia and whole blood was collected. The aliquots of 1 ml each of the plasma were obtained from the blood by centrifugation at 2,500 rpm at 4° C. for 30 minutes and stored at −20° C. Plasma GH concentrations were determined by RIA using the rat GH [ I] assay system (Amersham).

SD rats = assay: Insulin secretion inhibition study using SD rats; assay type: in vivo, rat
Description: In order to study the inhibitory effect of the compound of Example 5 on the insulin secretion after the stimulation by glucose, blood was withdrawn at various time intervals after the simultaneous intravenous administration of the compound of Example 5 and glucose. Serum insulin concentrations were determined by RIA.
Male rats of SD strain (8 weeks of age, n=3) were weighed and anesthetized by the intraperitoneal administration of 50 mg/kg of pentobarbital. As blood clotting inhibitor 30 mg of EDTA was dissolved in 300 μl of 50,000 units/ml Trasylol (Bayer) solution, and the solution was placed into Eppendorf blood collecting tubes each in quantity of […]. After fixing the rat on the rat fixing apparatus, the unilateral jugular vein was exposed and 100 μl of the blood was withdrawn from the vein by using a 25G injection needle. The test solution for the control group [without glucose] was saline containing 5% propylene glycol and 30% hydroxypropyl-β-cyclodextrin. The test solution for the control group [with glucose] was saline containing 5% propylene glycol, 30% hydroxypropyl-β-cyclodextrin, and 300 mg/kg/ml of glucose. […]
Plasma insulin concentrations were determined by RIA using the rat insulin [125I] assay system (Amersham). […] The radioactivity of the sediment was measured by gamma counter. […]

`NCc1cccc(C2OC(CC(=O)NCc3ccccc3F)C(=O)N(Cc3ccc(-c4ccccc4)cc3)c3ccc(Cl)cc32)c1` (stereo not drawn) [Example 5, 3,5-Trans-N-(2-fluorobenzyl)-5-(3-aminomethylphenyl)-1-(4-biphenylmethyl)-7-chloro-2-oxo-1,2,3,5-tetrahydro-4,1-benzoxazepine-3-acetamide•monohydrochloride] was tested, and the “Plasma GH concentrations mean ± SD” value (Sprague-Dawley (SD) rats; four hours after administration, n = 5) was 11.2 ± 6.5 ng/mL, the “Plasma GH concentration versus control” value (Sprague-Dawley (SD) rats; p<0.05) was “declined significantly” and the “Elevation of the plasma insulin concentration after glucose” value (SD rats; intravenous 0.003, 0.03, 0.3 or 3 mg/kg with glucose, male SD rats) was “dose-dependently inhibited”. For the same compound, the “Dosage which inhibited the elevation of insulin concentration by 50%” value (SD rats; simultaneous intravenous administration with glucose, anesthetized male SD rats) was “about 0.03 mg/kg”.
